From the supplement of paper PMC8617591

Tests used:
[1] = tested on: Mycobacterium tuberculosis Erdman (autoluminescent); assay: AUC25, normalised area under dose response up to IC25 (fraction (0-1)); higher = more potent at low dose
Method: (§1)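 DiaMOND dose responses (10 doses, 1.5- or 2-fold spacing, equipotent around IC90) of autoluminescent M. tuberculosis Erdman in 8 in vitro models. Read-out is OD600, or luminescence for the intracellular (J774) and dormancy models, background-subtracted and normalised to untreated wells. A 3-parameter Hill fit gives Einf and AUC25 (area to IC25 normalised by IC25); GRinf comes from a Hill fit of the Hafner normalised growth rate. Biological replicates passing QC are averaged. Single drugs only.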

[2] = tested on: Mycobacterium tuberculosis Erdman (autoluminescent); assay: Einf, fitted maximum growth inhibition (fraction); higher = stronger maximal inhibition
Method: as §1

[3] = tested on: Mycobacterium tuberculosis Erdman (autoluminescent); assay: GRinf, maximum normalised growth rate inhibition (unitless (-1 to 1)); higher = less effect (negative = killing)
Method: as §1

[4] = tested on: Mycobacterium tuberculosis Erdman (autoluminescent); assay: FIC50 (Loewe) at 50% inhibition (log2); higher = more antagonistic
Method: (§2)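 DiaMOND equipotent two-drug combination dose responses against autoluminescent M. tuberculosis Erdman in 8 in vitro models. Read-out is OD600, or luminescence for the intracellular and dormancy models, normalised to untreated wells. Hill-fit Einf, AUC25 and GRinf are potency metrics; FIC50 and FIC90 are Loewe-additivity fractional inhibitory concentrations, given as log2 (negative = synergy). Replicates are averaged.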

[5] = tested on: Mycobacterium tuberculosis Erdman (autoluminescent); assay: FIC90 (Loewe) at 90% inhibition (log2); higher = more antagonistic
Method: as §2

[6] = tested on: Mycobacterium tuberculosis Erdman (autoluminescent); assay: AUC25, normalised area under dose response up to IC25 (fraction (0-1)); higher = more potent at low dose; remark: listed apart in the source
Method: as §2

[7] = tested on: Mycobacterium tuberculosis Erdman (autoluminescent); assay: Einf, fitted maximum growth inhibition of combination (fraction); higher = stronger maximal inhibition
Method: as §2

[8] = tested on: Mycobacterium tuberculosis Erdman (autoluminescent); assay: GRinf, maximum normalised growth rate inhibition (unitless (-1 to 1)); higher = less effect (negative = killing); remark: listed apart in the source
Method: as §2

O=[N+]([O-])c1cn2c(n1)OC[C@@H](OCc1ccc(OC(F)(F)F)cc1)C2 [pretomanid]
Details | AUC25, [1] | Einf, [2] | GRinf, [3]
in vitro model: acidic pH 5.7, time point: constant (~7 days, model-specific) | 0.109 | 0.891 | -0.472
in vitro model: acidic pH 5.7, time point: terminal (~4-5 doublings, model-specific) | 0.0605 | 0.983 | -0.294
in vitro model: intracellular J774, time point: constant = terminal | – | 1 | -0.539

Details | AUC25, [1] | Einf, [2] | GRinf, [3]
in vitro model: butyrate, time point: constant (~7 days, model-specific) | 0.0902 | 0.949 | -0.111
in vitro model: butyrate, time point: terminal (~4-5 doublings, model-specific) | 0.0573 | 0.98 | -0.114
in vitro model: cholesterol 0.05 mM, time point: constant (~7 days, model-specific) | 0.122 | 0.741 | -0.205
in vitro model: cholesterol 0.05 mM, time point: terminal (~4-5 doublings, model-specific) | 0.0841 | 0.927 | -0.0295
in vitro model: cholesterol-high 0.2 mM, time point: constant (~7 days, model-specific) | 0.0644 | 0.888 | -0.269
in vitro model: cholesterol-high 0.2 mM, time point: terminal (~4-5 doublings, model-specific) | 0.044 | 0.943 | -0.393
in vitro model: dormancy (butyrate + nitrate, low O2), time point: constant (~7 days, model-specific) | 0.0707 | 0.914 | 0.272
in vitro model: dormancy (butyrate + nitrate, low O2), time point: terminal (~4-5 doublings, model-specific) | 0.0458 | 0.994 | -0.0972
in vitro model: standard 7H9 glycerol, time point: constant = terminal | 0.0636 | 0.939 | -0.0451
in vitro model: valerate, time point: constant (~7 days, model-specific) | 0.136 | 0.948 | -0.0946
in vitro model: valerate, time point: terminal (~4-5 doublings, model-specific) | 0.0896 | 0.96 | -0.00421

NC(=O)c1cnccn1 [pyrazinamide]
Details | AUC25, [1] | Einf, [2] | GRinf, [3]
in vitro model: acidic pH 5.7, time point: constant (~7 days, model-specific) | 0.12 | 0.74 | -0.0384
in vitro model: acidic pH 5.7, time point: terminal (~4-5 doublings, model-specific) | 0.124 | 0.881 | 0.0463
in vitro model: intracellular J774, time point: constant = terminal | – | 0.977 | -0.393

Details | AUC25, [1] | Einf, [2] | GRinf, [3]
in vitro model: butyrate, time point: constant (~7 days, model-specific) | 0.135 | 0.921 | -1
in vitro model: butyrate, time point: terminal (~4-5 doublings, model-specific) | 0.098 | 0.954 | -1
in vitro model: cholesterol 0.05 mM, time point: constant (~7 days, model-specific) | 0.154 | 0.394 | 0.111
in vitro model: cholesterol 0.05 mM, time point: terminal (~4-5 doublings, model-specific) | 0.142 | 0.803 | 0.0744
in vitro model: cholesterol-high 0.2 mM, time point: constant (~7 days, model-specific) | 0.0952 | 0.765 | -0.0736
in vitro model: cholesterol-high 0.2 mM, time point: terminal (~4-5 doublings, model-specific) | 0.0753 | 0.959 | -0.64
in vitro model: dormancy (butyrate + nitrate, low O2), time point: constant (~7 days, model-specific) | 0.0813 | 0.939 | -0.934
in vitro model: standard 7H9 glycerol, time point: constant = terminal | 0.104 | 0.291 | 0.582
in vitro model: valerate, time point: constant (~7 days, model-specific) | 0.0917 | 0.8 | -0.597
in vitro model: valerate, time point: terminal (~4-5 doublings, model-specific) | 0.0645 | 0.916 | -0.749

NC(=O)c1cnccn1 [pyrazinamide] + CO[C@H]1/C=C/O[C@@]2(C)Oc3c(C)c(O)c4c(O)c(c(/C=N/N5CCN(C)CC5)c(O)c4c3C2=O)NC(=O)/C(C)=C\C=C\[C@H](C)[C@H](O)[C@@H](C)[C@@H](O)[C@@H](C)[C@H](OC(C)=O)[C@@H]1C [rifampicin]
Details | AUC25, [6] | Einf, [7] | FIC50, [4] | FIC90, [5] | GRinf, [8]
in vitro model: acidic pH 5.7, time point: constant (~7 days, model-specific) | 0.0773 | 0.932 | -0.484 | – | -0.451
in vitro model: acidic pH 5.7, time point: terminal (~4-5 doublings, model-specific) | 0.0598 | 0.992 | -0.21 | -1.3 | -0.278
in vitro model: intracellular J774, time point: constant = terminal | – | 0.989 | – | -0.135 | -0.472

Details | AUC25, [6] | Einf, [7] | FIC50, [4] | FIC90, [5] | GRinf, [8]
in vitro model: butyrate, time point: constant (~7 days, model-specific) | 0.121 | 0.839 | 0.347 | – | 0.188
in vitro model: butyrate, time point: terminal (~4-5 doublings, model-specific) | 0.118 | 0.915 | 0.398 | 2.41 | 0.216
in vitro model: cholesterol 0.05 mM, time point: constant (~7 days, model-specific) | 0.128 | 0.607 | – | – | 0.0467
in vitro model: cholesterol 0.05 mM, time point: terminal (~4-5 doublings, model-specific) | 0.101 | 0.887 | 0.59 | – | -0.0969
in vitro model: cholesterol-high 0.2 mM, time point: constant (~7 days, model-specific) | 0.0909 | 0.91 | 1.2 | – | -0.177
in vitro model: cholesterol-high 0.2 mM, time point: terminal (~4-5 doublings, model-specific) | 0.095 | 1 | 1.54 | 1.5 | -0.819
in vitro model: dormancy (butyrate + nitrate, low O2), time point: constant (~7 days, model-specific) | 0.105 | 0.9 | -0.268 | 0.25 | 0.249
in vitro model: dormancy (butyrate + nitrate, low O2), time point: terminal (~4-5 doublings, model-specific) | 0.0706 | 0.983 | -0.19 | 0.408 | -0.179
in vitro model: standard 7H9 glycerol, time point: constant = terminal | 0.0562 | 0.896 | -0.199 | – | 0.144
in vitro model: valerate, time point: constant (~7 days, model-specific) | 0.054 | 0.761 | 0.449 | – | 0.201
in vitro model: valerate, time point: terminal (~4-5 doublings, model-specific) | 0.0277 | 0.903 | 0.477 | 0.361 | 0.149
